# Measured values taken from US10912780B2, “Heterocyclic compounds useful as anti-bacterial agents and method for production thereof” (Bugworks Research, Inc., priority 2017, dated 2021).
# What was measured:
# [1] = system: Acinetobacter baumannii ATCC 19606; test: Minimum Inhibitory Concentration (MIC) in LB media; assay type: cell-based; details: Acinetobacter baumannii, ATCC19606;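 note: twofold compound dilutions from DMSO stocks in LB broth microplates, overnight incubation at 37 °C, growth read by absorbance at 600 nm, with DMSO and sterility controls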
# Protocol: Bacterial cultures that are stored as glycerol stocks at −80° C. are sub cultured on LB agar plates to obtain isolated colonies. A single colony of each strain is cultured in LB broth. […] Test compounds are dissolved in dimethyl sulfoxide (DMSO) to a stock concentration of 4 mg/ml. A twofold dilution series of this DMSO stock is prepared in a 96 well V bottom microtitre plate from rows A to H. A 3 μL volume of these dilutions are transferred to a 96-well flat bottom microtitre assay plate. Controls to monitor the effects of DMSO and media sterility are included. Each well is inoculated with 150 μL of the above diluted culture. The plates are incubated at 37° C. overnight in a humidified incubator. The following morning, the plates are read using a Spectrophotometer at 600 nm wavelength.
# E. coli DNA gyrase = E. coli DNA gyrase (Escherichia coli, UniProt P0AES4+P0AES6); test: biochemical; details: supercoiling assay
# Chain of E. coli DNA gyrase (P0AES4 whole entry, one chain of several): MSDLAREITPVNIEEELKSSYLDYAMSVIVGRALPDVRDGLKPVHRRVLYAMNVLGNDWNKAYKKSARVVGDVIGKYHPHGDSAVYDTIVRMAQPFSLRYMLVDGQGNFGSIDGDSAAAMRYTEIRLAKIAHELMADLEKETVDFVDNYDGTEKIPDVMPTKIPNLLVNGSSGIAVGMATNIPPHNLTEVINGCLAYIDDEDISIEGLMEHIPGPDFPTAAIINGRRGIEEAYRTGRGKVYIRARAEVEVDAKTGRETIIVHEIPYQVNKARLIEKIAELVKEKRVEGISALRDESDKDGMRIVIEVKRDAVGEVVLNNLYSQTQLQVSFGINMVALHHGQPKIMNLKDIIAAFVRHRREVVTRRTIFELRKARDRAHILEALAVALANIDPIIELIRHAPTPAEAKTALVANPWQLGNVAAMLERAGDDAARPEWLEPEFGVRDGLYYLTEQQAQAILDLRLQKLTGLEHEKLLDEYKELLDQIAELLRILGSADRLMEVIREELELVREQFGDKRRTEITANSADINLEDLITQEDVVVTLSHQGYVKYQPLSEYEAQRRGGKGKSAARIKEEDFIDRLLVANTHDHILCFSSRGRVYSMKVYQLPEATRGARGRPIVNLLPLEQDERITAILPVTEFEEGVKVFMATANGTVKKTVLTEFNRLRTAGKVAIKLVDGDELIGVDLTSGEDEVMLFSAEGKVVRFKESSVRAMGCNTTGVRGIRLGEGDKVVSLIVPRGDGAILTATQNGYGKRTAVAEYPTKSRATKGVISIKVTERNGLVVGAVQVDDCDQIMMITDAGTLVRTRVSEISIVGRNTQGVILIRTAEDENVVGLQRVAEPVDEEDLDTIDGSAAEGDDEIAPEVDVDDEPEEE
# E. coli topoisomerase IV = E. coli topoisomerase IV (Escherichia coli, UniProt P0AFI2+P20083); test: biochemical; details: decatenation assay; read-out: E. coli Topo IV IC50
# Chain of E. coli topoisomerase IV (P20083 whole entry): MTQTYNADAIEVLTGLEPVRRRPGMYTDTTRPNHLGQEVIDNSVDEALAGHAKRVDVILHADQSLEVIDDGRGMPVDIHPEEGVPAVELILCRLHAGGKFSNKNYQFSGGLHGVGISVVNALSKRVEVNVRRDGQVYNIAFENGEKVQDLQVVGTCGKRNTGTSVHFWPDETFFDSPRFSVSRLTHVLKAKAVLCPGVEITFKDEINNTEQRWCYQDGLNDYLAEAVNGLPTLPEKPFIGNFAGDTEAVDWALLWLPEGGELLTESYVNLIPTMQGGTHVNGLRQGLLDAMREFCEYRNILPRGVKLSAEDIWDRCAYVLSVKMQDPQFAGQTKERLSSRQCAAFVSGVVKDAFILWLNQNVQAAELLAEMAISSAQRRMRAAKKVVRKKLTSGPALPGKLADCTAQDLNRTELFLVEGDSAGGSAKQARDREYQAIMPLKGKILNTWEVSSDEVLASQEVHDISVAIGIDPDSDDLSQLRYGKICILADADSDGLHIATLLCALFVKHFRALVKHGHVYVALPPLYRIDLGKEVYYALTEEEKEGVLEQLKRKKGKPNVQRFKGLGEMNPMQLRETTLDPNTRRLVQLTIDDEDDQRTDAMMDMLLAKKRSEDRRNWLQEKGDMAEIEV
# Chain of E. coli topoisomerase IV (P0AFI2 whole entry): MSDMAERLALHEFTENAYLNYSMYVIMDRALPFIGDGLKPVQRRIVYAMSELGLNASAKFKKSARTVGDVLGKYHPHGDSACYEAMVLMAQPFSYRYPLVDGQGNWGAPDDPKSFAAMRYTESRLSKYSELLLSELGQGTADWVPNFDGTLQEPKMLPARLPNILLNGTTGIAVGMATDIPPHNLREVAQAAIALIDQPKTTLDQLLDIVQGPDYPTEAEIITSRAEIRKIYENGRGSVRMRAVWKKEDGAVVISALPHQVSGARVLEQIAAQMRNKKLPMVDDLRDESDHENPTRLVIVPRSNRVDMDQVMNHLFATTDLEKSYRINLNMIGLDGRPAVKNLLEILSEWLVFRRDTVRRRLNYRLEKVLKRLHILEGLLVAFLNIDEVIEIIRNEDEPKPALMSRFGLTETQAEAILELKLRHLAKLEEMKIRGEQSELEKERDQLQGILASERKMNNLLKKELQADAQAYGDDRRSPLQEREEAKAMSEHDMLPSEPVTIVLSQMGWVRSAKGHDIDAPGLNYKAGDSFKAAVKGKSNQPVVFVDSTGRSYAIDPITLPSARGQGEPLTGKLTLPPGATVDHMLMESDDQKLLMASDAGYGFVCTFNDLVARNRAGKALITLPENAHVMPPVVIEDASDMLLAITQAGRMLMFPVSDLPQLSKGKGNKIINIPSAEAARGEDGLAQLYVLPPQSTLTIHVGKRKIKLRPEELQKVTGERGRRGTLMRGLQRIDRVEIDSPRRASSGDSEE
# [2] = system: Pseudomonas aeruginosa ATCC 27853; test: Minimum Inhibitory Concentration (MIC) in LB media; assay type: cell-based; details: Pseudomonas aeruginosa, ATCC27853, read-out: Minimum Inhibitory Concentration P. aeruginosa ATCC 27853
# From the text: (§1) The compounds of Formula (I) are of interest due to their potent antibacterial effects. The ability of the invention compounds disclosed herein to achieve an antibacterial effect may be evaluated with regard to their ability to inhibit the growth of bacterial species like Escherichia coli ATCC 25922, Staphylococcus aureus ATCC 29213, Klebsiella pneumoniae ATCC 13883, Acinetobacter baumannii ATCC 19606, Pseudomonas aeruginosa ATCC 27853, Enterococcus faecalis ATCC 29212 and Enterococcus faecalis ATCC 29212 using an assay based on the following Minimum Inhibitory Concentration (MIC) protocol:
# (§2) The medium sterility is checked by incubating at 37° C. for a period of 48 h.
# (§3) Bacterial cultures that are stored as glycerol stocks at −80° C. are sub cultured on LB agar plates to obtain isolated colonies. A single colony of each strain is cultured in LB broth. The cultures are incubated at 37 C, 200 rpm till they reach an optical density (OD at 600 nm) of 0.8 to 1. […] Test compounds are dissolved in dimethyl sulfoxide (DMSO) to a stock concentration of 4 mg/ml. A twofold dilution series of this DMSO stock is prepared in a 96 well V bottom microtitre plate from rows A to H. A 3 μL volume of these dilutions are transferred to a 96-well flat bottom microtitre assay plate. Controls to monitor the effects of DMSO and media sterility are included. Each well is inoculated with 150 μL of the above diluted culture. The plates are incubated at 37° C. overnight in a humidified incubator. The following morning, the plates are read using a Spectrophotometer at 600 nm wavelength. […] The antibacterial activity (MIC) determined against representative Gram positive (S. aureus, E. faecalis) and Gram negative (E.coli, -P. aeruginosa and A. baumannii) pathogen were reported Table 1.
# [3] = system: Escherichia coli ATCC 25922; test: Minimum Inhibitory Concentration (MIC) in LB media; assay type: cell-based; details: Escherichia coli, ATCC25922, read-out: Minimum Inhibitory Concentration E. coli ATCC 25922
# From the text: as §1, §2, §3
# [4] = system: Enterococcus faecalis ATCC 29212; test: Minimum Inhibitory Concentration (MIC) in LB media; assay type: cell-based; details: Enterococcus faecalis, ATCC29212, read-out: Minimum Inhibitory Concentration E. faecalis ATCC 29212
# From the text: as §1, §2, §3
# [5] = system: Staphylococcus aureus ATCC 29213; test: Minimum Inhibitory Concentration (MIC) in LB media; assay type: cell-based; details: Staphylococcus aureus, ATCC29213, read-out: Minimum Inhibitory Concentration S. aureus ATCC 29213
# From the text: as §1, §2, §3
# [6] = system: Klebsiella pneumoniae ATCC 13883; test: Minimum Inhibitory Concentration (MIC) in LB media; assay type: cell-based; details: Klebsiella pneumoniae, ATCC13883, read-out: Minimum Inhibitory Concentration K. pneumoniae ATCC 13883
# From the text: as §1, §2, §3
# [7] = biological target: T1, human ether a go-go related gene (hERG) K+ channel (Homo sapiens, UniProt Q12809); test: hERG inhibition assay, QPatch HTX automated electrophysiology; assay type: cell-based; details: CHO cell line stably expressing hERG, whole-cell patch clamp, maximum test concentration 300 μM
# T1 construct: Chinese Hamster Ovary cell line stably expressing the full-length hERG potassium channel; expressed in transfected cells
# T1 sequence (Q12809 whole entry): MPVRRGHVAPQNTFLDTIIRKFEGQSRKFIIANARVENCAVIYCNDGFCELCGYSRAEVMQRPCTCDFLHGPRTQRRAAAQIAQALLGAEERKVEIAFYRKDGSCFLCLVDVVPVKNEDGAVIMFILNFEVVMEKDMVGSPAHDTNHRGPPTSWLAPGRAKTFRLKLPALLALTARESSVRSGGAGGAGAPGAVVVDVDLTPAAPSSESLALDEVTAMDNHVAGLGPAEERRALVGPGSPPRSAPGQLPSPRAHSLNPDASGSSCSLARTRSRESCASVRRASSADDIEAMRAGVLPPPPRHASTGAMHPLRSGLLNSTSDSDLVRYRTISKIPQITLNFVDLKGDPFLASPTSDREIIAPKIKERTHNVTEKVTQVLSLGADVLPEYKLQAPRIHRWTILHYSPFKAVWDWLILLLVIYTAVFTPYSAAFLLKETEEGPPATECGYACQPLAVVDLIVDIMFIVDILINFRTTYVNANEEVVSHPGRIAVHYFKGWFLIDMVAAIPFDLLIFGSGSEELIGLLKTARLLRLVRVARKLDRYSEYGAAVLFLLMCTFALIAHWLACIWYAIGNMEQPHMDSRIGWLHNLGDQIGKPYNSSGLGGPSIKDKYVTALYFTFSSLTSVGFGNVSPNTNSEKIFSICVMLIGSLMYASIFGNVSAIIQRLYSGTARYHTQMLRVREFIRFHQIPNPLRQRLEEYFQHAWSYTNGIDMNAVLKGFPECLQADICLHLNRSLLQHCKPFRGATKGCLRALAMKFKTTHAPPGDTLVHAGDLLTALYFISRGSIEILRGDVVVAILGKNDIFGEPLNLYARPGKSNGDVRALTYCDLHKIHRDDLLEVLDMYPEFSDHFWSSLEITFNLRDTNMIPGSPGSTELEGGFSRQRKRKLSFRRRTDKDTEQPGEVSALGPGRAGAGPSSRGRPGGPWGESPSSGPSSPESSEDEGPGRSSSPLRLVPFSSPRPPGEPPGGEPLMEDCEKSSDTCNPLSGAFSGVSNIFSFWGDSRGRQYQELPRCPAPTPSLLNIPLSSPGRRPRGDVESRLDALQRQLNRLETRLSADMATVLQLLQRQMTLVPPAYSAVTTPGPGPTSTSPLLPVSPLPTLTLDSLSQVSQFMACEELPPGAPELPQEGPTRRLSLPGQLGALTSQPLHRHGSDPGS
# Protocol: The compounds were tested for inhibition of the human ether a go-go related gene (hERG) K+ channel using QPatch HTX automated electrophysiology.
# Compounds were solubilised to 100 mM in DMSO before dilution in HBPS to 300 μM.
# Electrophysiological recordings were made from a Chinese Hamster Ovary cell line stably expressing the full-length hERG potassium channel. Single cell ionic currents were measured in whole-cell patch clamp configuration at room temperature (21-23° C.) using the QPatch HTX platform (Sophion). Intracellular solution contained (mM): 120 KF, 20 KCl, 10 EGTA, 10 HEPES and was buffered to pH 7.3. […] Cells were clamped at a holding potential of −80 mV. […] This sweep was repeated 10 times at 10 s intervals. hERG currents were measured from the tail step and referenced to the holding current. Compounds were then incubated for 2 minutes prior to a second measurement of ion channel current using an identical pulse train.
SMILES,MIC [1] [µg/mL],IC50 (E. coli DNA gyrase) [nM],IC50 (E. coli topoisomerase IV) [nM],MIC [2] [µg/mL],MIC [3] [µg/mL],MIC [4] [µg/mL],MIC [5] [µg/mL],MIC [6] [µg/mL],IC50 [7] [nM]
"O=C1COc2ccc(N3C[C@H](CNCCc4c(F)ccc5ncc(=O)n(CCO)c45)OC3=O)nc2N1 [Example 9, (S)-6-(5-(((2-(6-fluoro-4-(2-hydroxyethyl)-3-oxo-3,4-dihydroquinoxalin-5-yl)ethyl)amino)methyl)-2-oxooxazolidin-3-yl)-2H-pyrido[3,2-b][1,4]oxazin-3(4H)-one]",0.06,3.2,175,1,0.06,0.125,0.03,0.13,68700
"Cn1c(=O)cc(CN)c2ccc(F)c(CCNC[C@H]3CN(c4ccc5c(n4)NC(=O)CO5)C(=O)O3)c21 [Example 13, (S)-6-(5-(((2-(4-(aminomethyl)-7-fluoro-1-methyl-2-oxo-1,2-dihydroquinolin-8-yl)ethyl)amino)methyl)-2-oxooxazolidin-3-yl)-2H-pyrido[3,2-b][1,4]oxazin-3(4H)-one]",1,20,32,0.5,0.125,0.5,0.25,0.25,> 300000
"Cn1c(=O)ccc2ccc(F)c(CCNCC[C@H]3CN(c4cnc5c(n4)NC(=O)CO5)C(=O)O3)c21 (single isomer, unassigned) [Example 24]",0.5,25,123,0.25,0.06,0.125,0.125,0.125,> 300000
"O=C1COc2ncc(N3C[C@H](CNCCc4c(F)ccc5ccc(=O)n(CCO)c45)OC3=O)nc2N1 [Example 20, (S)-6-(5-(((2-(7-fluoro-1-(2-hydroxyethyl)-2-oxo-1,2-dihydroquinolin-8-yl)ethyl)amino)methyl)-2-oxooxazolidin-3-yl)-2H-pyrazino[2,3-b][1,4]oxazin-3(4H)-one]",2,10.6,90,0.5,0.125,0.125,0.03,0.5,> 300000
"Cn1c(=O)ccc2ccc(F)c(CCCNC[C@@H]3CN(c4cnc5c(n4)NC(=O)CO5)C(=O)O3)c21 [Example 23, (R)-6-(5-(((3-(7-fluoro-1-methyl-2-oxo-1,2-dihydroquinolin-8-yl)propyl)amino)methyl)-2-oxooxazolidin-3-yl)-2H-pyrazino[2,3-b][1,4]oxazin-3(4H)-one]",0.015,4.9,37,0.25,0.03,0.06,0.015,0.03,35000
"Cn1c(=O)ccc2ccc(F)c(CCNCC[C@@H]3CN(c4cnc5c(n4)NC(=O)CO5)C(=O)O3)c21 (single isomer, unassigned) [Example 25]",0.5,17,21,0.25,0.06,0.5,0.06,0.25,101000
"CN1C(=O)CCc2ccc(F)c(CCNC[C@@H]3CN(c4ccc5c(n4)NC(=O)CO5)C(=O)O3)c21 [Example 3, (R)-6-(5-(((2-(7-fluoro-1-methyl-2-oxo-1,2,3,4-tetrahydroquinolin-8-yl)ethyl)amino)methyl)-2-oxooxazolidin-3-yl)-2H-pyrido[3,2-b][1,4]oxazin-3(4H)-one]",1,–,–,16,0.5,0.25,0.5,2,12000
"Cc1nc2ccc(F)c(CCNC[C@H]3CN(c4ccc5c(n4)NC(=O)CO5)C(=O)O3)c2n(C)c1=O [Example 6, (S)-6-(5-(((2-(6-fluoro-2,4-dimethyl-3-oxo-3,4-dihydroquinoxalin-5-yl)ethyl)amino)methyl)-2-oxooxazolidin-3-yl)-2H-pyrido[3,2-b][1,4]oxazin-3(4H)-one]",0.015,3.4,30,1,0.06,0.125,0.015,0.125,–
"Cn1c(=O)ccc2ccc(F)c(CCNC[C@H]3CN(c4ccc5c(n4)NC(=O)CO5)C(=O)O3)c21 [Example 8, (S)-6-(5-(((2-(7-fluoro-1-methyl-2-oxo-1,2-dihydroquinolin-8-yl)ethyl)amino)methyl)-2-oxooxazolidin-3-yl)-2H-pyrido[3,2-b][1,4]oxazin-3(4H)-one]",≤ 0.015,–,–,0.25,0.03,0.06,≤ 0.015,0.03,17000
"Cn1c(=O)cc(CO)c2ccc(F)c(CCNC[C@H]3CN(c4ccc5c(n4)NC(=O)CO5)C(=O)O3)c21 [Example 12, (S)-6-(5-(((2-(7-fluoro-4-(hydroxymethyl)-1-methyl-2-oxo-1,2-dihydroquinolin-8-yl)ethyl)amino)methyl)-2-oxooxazolidin-3-yl)-2H-pyrido[3,2-b][1,4]oxazin-3(4H)-one]",1,< 100,176,1,0.25,0.5,0.25,0.5,–
"Cn1c(=O)ccc2ccc(F)c(C[C@H](O)CNC[C@H]3CN(c4ccc5c(n4)NC(=O)CO5)C(=O)O3)c21 (single isomer, unassigned) [Example 18]",0.5,13,24,1,0.125,0.5,0.125,0.125,237000
"Cn1c(=O)cnc2ccc(F)c(CCNC[C@@H]3CN(c4ccc5c(n4)NC(=O)CO5)C(=O)O3)c21 [Example 5, (R)-6-(5-(((2-(6-fluoro-4-methyl-3-oxo-3,4-dihydroquinoxalin-5-yl)ethyl)amino)methyl)-2-oxooxazolidin-3-yl)-2H-pyrido[3,2-b][1,4]oxazin-3(4H)-one]",0.03,–,–,1,0.06,0.25,0.015,0.125,14000
